According to PubChem BioAssay (NCI):
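Protocol summary: plate cells (96-well), add compound at 5 concentrations, incubate 48 h, interpolate endpoints linearly. At the GI50, growth is halved. TGI: concentration producing complete growth inhibition.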

Tests used:
Assay in all cases: DTP human tumour cell line panel, 48 h
[1] = system: NCI-H522 lung
[2] = system: NCI/ADR-RES ovarian
[3] = system: SF-268 CNS
[4] = system: SK-OV-3 ovarian
[5] = system: HOP-92 NSCLC
[6] = system: PC-3 prostate
[7] = system: 786-0 renal
[8] = system: T-47D breast
[9] = system: A549 NSCLC
[10] = system: HCT-116 colon
[11] = system: HCT-15 colon
[12] = system: MALME-3M melanoma
[13] = system: NCI-H226 lung
[14] = system: SNB-19 CNS
[15] = system: UACC-62 melanoma
[16] = system: MCF7 breast
[17] = system: NCI-H460 lung
[18] = system: U251 CNS
[19] = system: SK-MEL-28 melanoma
[20] = system: COLO 205 colon
[21] = system: UO-31 renal
[22] = system: OVCAR-8 ovarian
[23] = system: OVCAR-3 ovarian
[24] = system: KM12 colon
[25] = system: SR leukemia
[26] = system: RPMI-8226 leukemia
[27] = system: SW-620 colon
[28] = system: SF-539 CNS
[29] = system: OVCAR-5 ovarian
[30] = system: NCI-H23 lung
[31] = system: DU-145 prostate
[32] = system: HOP-62 NSCLC
[33] = system: LOX IMVI melanoma
[34] = system: CAKI-1 renal
[35] = system: SK-MEL-5 melanoma
[36] = system: HCC-2998 colon
[37] = system: HS 578T breast
[38] = system: SF-295 CNS
[39] = system: MDA-MB-435
[40] = system: UACC-257 melanoma
[41] = system: HT29 colon
[42] = system: SNB-75 CNS
[43] = system: OVCAR-4 ovarian
[44] = system: A498 renal
[45] = system: K-562 leukemia
[46] = system: ACHN renal
[47] = system: IGROV1 ovarian
[48] = system: MOLT-4 leukemia
[49] = system: HL-60(TB) leukemia
[50] = system: TK-10 renal
[51] = system: MDA-MB-231 breast
[52] = system: M14 melanoma
[53] = system: CCRF-CEM leukemia
[54] = system: SN12C renal
[55] = system: EKVX NSCLC
[56] = system: RXF 393 renal
[57] = system: SK-MEL-2 melanoma
[58] = system: BT-549 breast

SMILES: Cc1ccc(-n2c(-c3cc4c([nH]c5ccccc54)c(-c4cccc(O)c4)n3)n[nH]c2=S)cc1
- GI50 [1]: 0.861 µM
- TGI [1]: 5.27 µM
- GI50 [2]: 4.14 µM
- TGI [2]: 24.1 µM
- GI50 [3]: 1.32 µM
- TGI [3]: 10.6 µM
- GI50 [4]: 1.18 µM
- TGI [4]: 4.44 µM
- GI50 [5]: 4.76 µM
- TGI [5]: 27.4 µM
- GI50 [6]: 2.48 µM
- TGI [6]: 42.4 µM
- GI50 [7]: 2.6 µM
- TGI [7]: 12.8 µM
- GI50 [8]: 1.8 µM
- TGI [8]: 11.9 µM
- GI50 [9]: 2.34 µM
- TGI [9]: 10.4 µM
- GI50 [10]: 0.384 µM
- TGI [10]: 10 µM
- GI50 [11]: 0.61 µM
- TGI [11]: 6.94 µM
- GI50 [12]: 2.57 µM
- TGI [12]: 17.6 µM
- GI50 [13]: 0.658 µM
- TGI [13]: 3.94 µM
- GI50 [14]: 0.403 µM
- TGI [14]: 3.7 µM
- GI50 [15]: 0.491 µM
- TGI [15]: 2.57 µM
- GI50 [16]: 1.8 µM
- TGI [16]: 10.5 µM
- GI50 [17]: 0.393 µM
- TGI [17]: 10.2 µM
- GI50 [18]: 0.371 µM
- TGI [18]: 2.22 µM
- GI50 [19]: 0.628 µM
- TGI [19]: 4.22 µM
- GI50 [20]: 2.46 µM
- TGI [20]: 8.14 µM
- GI50 [21]: 2.56 µM
- TGI [21]: 15 µM
- GI50 [22]: 0.442 µM
- TGI [22]: 3.67 µM
- GI50 [23]: 0.399 µM
- TGI [23]: 1.86 µM
- GI50 [24]: 1.15 µM
- TGI [24]: 5.1 µM
- GI50 [25]: 0.443 µM
- TGI [25]: 2.07 µM
- GI50 [26]: 0.808 µM
- TGI [26]: 3.76 µM
- GI50 [27]: 0.406 µM
- TGI [27]: 11.8 µM
- GI50 [28]: 0.306 µM
- TGI [28]: 1.06 µM
- GI50 [29]: 3.73 µM
- TGI [29]: 17.1 µM
- GI50 [30]: 1.67 µM
- TGI [30]: 9.84 µM
- GI50 [31]: 0.616 µM
- TGI [31]: 6.17 µM
- GI50 [32]: 1.24 µM
- TGI [32]: 4.87 µM
- GI50 [33]: 0.461 µM
- TGI [33]: 1.97 µM
- GI50 [34]: 1.73 µM
- TGI [34]: 4.9 µM
- GI50 [35]: 1.32 µM
- TGI [35]: 3.31 µM
- GI50 [36]: 0.268 µM
- TGI [36]: 0.838 µM
- GI50 [37]: 1.74 µM
- TGI [37]: 36.2 µM
- GI50 [38]: 1.11 µM
- TGI [38]: 3.12 µM
- GI50 [39]: 0.649 µM
- TGI [39]: 2.75 µM
- GI50 [40]: 2.03 µM
- TGI [40]: 7.11 µM
- GI50 [41]: 1.36 µM
- TGI [41]: 3.68 µM
- GI50 [42]: 1.34 µM
- TGI [42]: 6.17 µM
- GI50 [43]: 2.23 µM
- TGI [43]: 11 µM
- GI50 [44]: 0.263 µM
- TGI [44]: 0.738 µM
- GI50 [45]: 0.523 µM
- TGI [45]: > 100 µM
- GI50 [46]: 2.37 µM
- TGI [46]: 15.4 µM
- GI50 [47]: 0.704 µM
- TGI [47]: 4.74 µM
- GI50 [48]: 0.908 µM
- TGI [48]: 4.76 µM
- GI50 [49]: 1.08 µM
- TGI [49]: 3.43 µM
- GI50 [50]: 3.68 µM
- TGI [50]: 16.2 µM
- GI50 [51]: 1.35 µM
- TGI [51]: 6.35 µM
- GI50 [52]: 1.1 µM
- TGI [52]: 3.71 µM
- GI50 [53]: 0.682 µM
- TGI [53]: 11.6 µM
- GI50 [54]: 0.936 µM
- TGI [54]: 6.91 µM
- GI50 [55]: 1.95 µM
- TGI [55]: 11.1 µM

SMILES: CCN(Cc1ccc(F)cc1)c1ccc(CO)c(C(F)(F)F)c1
- GI50 [1]: 12.5 µM
- TGI [1]: 26.9 µM
- GI50 [2]: 13.7 µM
- TGI [2]: 28 µM
- GI50 [3]: 15.5 µM
- TGI [3]: 31.3 µM
- GI50 [4]: 15.8 µM
- TGI [4]: 30.8 µM
- GI50 [56]: 14.9 µM
- TGI [56]: 28.3 µM
- GI50 [57]: 15.1 µM
- TGI [57]: 32.5 µM
- GI50 [5]: 2.29 µM
- TGI [5]: 17.8 µM
- GI50 [6]: 12.1 µM
- TGI [6]: 25.7 µM
- GI50 [7]: 12.4 µM
- TGI [7]: 26.2 µM
- GI50 [8]: 1.84 µM
- TGI [8]: 10.4 µM
- GI50 [9]: 10.9 µM
- TGI [9]: 23.5 µM
- GI50 [10]: 1.54 µM
- TGI [10]: 12.8 µM
- GI50 [11]: 14.4 µM
- TGI [11]: 29.4 µM
- GI50 [12]: 15.5 µM
- TGI [12]: 30.3 µM
- GI50 [14]: 15.3 µM
- TGI [14]: 28.6 µM
- GI50 [15]: 1.41 µM
- TGI [15]: 7.33 µM
- GI50 [16]: 5.77 µM
- TGI [16]: 19.2 µM
- GI50 [17]: 3.43 µM
- TGI [17]: 15.7 µM
- GI50 [18]: 4.1 µM
- TGI [18]: 18.4 µM
- GI50 [19]: 14.1 µM
- TGI [19]: 27.1 µM
- GI50 [20]: 14.4 µM
- TGI [20]: 27.5 µM
- GI50 [21]: 12.5 µM
- TGI [21]: 25 µM
- GI50 [22]: 14.3 µM
- TGI [22]: 27.3 µM
- GI50 [23]: 6.91 µM
- TGI [23]: 19.6 µM
- GI50 [24]: 15.2 µM
- TGI [24]: 29.3 µM
- GI50 [26]: 11.7 µM
- TGI [26]: 45.2 µM
- GI50 [27]: 11.2 µM
- TGI [27]: 23.5 µM
- GI50 [28]: 15.5 µM
- TGI [28]: 28.9 µM
- GI50 [29]: 1.28 µM
- TGI [29]: 5 µM
- GI50 [30]: 11.1 µM
- TGI [30]: 24.2 µM
- GI50 [31]: 16.7 µM
- TGI [31]: 31.8 µM
- GI50 [32]: 9.23 µM
- TGI [32]: 21.2 µM
- GI50 [58]: 15.1 µM
- TGI [58]: 28.3 µM
- GI50 [33]: 17.5 µM
- TGI [33]: 31.3 µM
- GI50 [34]: 13.9 µM
- TGI [34]: 28.7 µM
- GI50 [35]: 13.9 µM
- TGI [35]: 26.8 µM
- GI50 [36]: 14.9 µM
- TGI [36]: 28.2 µM
- GI50 [37]: 14.1 µM
- TGI [37]: 40.3 µM
- GI50 [38]: 3.3 µM
- TGI [38]: 16.5 µM
- GI50 [39]: 16 µM
- TGI [39]: 29.4 µM
- GI50 [40]: 1.76 µM
- TGI [40]: 7.01 µM
- GI50 [41]: 14.3 µM
- TGI [41]: 31.2 µM
- GI50 [42]: 14.3 µM
- TGI [42]: 30.6 µM
- GI50 [43]: 1.79 µM
- TGI [43]: 12.8 µM
- GI50 [44]: 0.122 µM
- TGI [44]: 0.287 µM
- GI50 [45]: 10.4 µM
- TGI [45]: 52.1 µM
- GI50 [46]: 14.6 µM
- TGI [46]: 27.8 µM
- GI50 [47]: 1.56 µM
- TGI [47]: 11.6 µM
- GI50 [48]: 15.2 µM
- TGI [48]: 43.5 µM
- GI50 [49]: 15.8 µM
- TGI [49]: 41.9 µM
- GI50 [51]: 14.3 µM
- TGI [51]: 27.3 µM
- GI50 [52]: 15.1 µM
- TGI [52]: 30.9 µM
- GI50 [53]: 14.7 µM
- TGI [53]: 43.7 µM
- GI50 [54]: 12.9 µM
- TGI [54]: 25.5 µM
